Values joined by “and” are separate entries in the source; they are usually repeats but may differ in a detail not shown here. Identical values can stand only once. Toxic doses and inconclusive results are not listed. The calls were made as follows: active = survival T/C of 150% or more; inactive = T/C below 125% in these data.
Test system: CD2F1 mice, L1210 leukemia ip, survival T/C
Test: NCI In Vivo Anticancer Drug Screen. Data for tumor model L1210 Leukemia (intraperitoneal) in CD2F1 (CDF1) mice
Conditions: endpoint: mean survival time, higher = longer survival
In short: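 Vehicle-treated tumor-bearing mice served as controls (C) for compound-treated mice (T). Reported figure is T divided by C.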

[1] = dose: 10.0 mg/kg/injection, schedule: Q04DX003 (ip), vehicle: saline with Tween-80
[2] = dose: 12.5 mg/kg/injection, schedule: Q04DX003 (ip), vehicle: saline with Tween-80
[3] = dose: 25.0 mg/kg/injection, schedule: Q01DX009 (ip), vehicle: saline with Tween-80
[4] = dose: 25.0 mg/kg/injection, schedule: Q04DX003 (ip), vehicle: saline with Tween-80
[5] = dose: 100.0 mg/kg/injection, schedule: Q04DX003 (ip), vehicle: saline with Tween-80
[6] = dose: 200.0 mg/kg/injection, schedule: Q04DX003 (ip), vehicle: saline with Tween-80
[7] = dose: 100.0 mg/kg/injection, schedule: Q01DX001 (ip), vehicle: Klucel (hydroxypropylcellulose) (HPC)
[8] = dose: 200.0 mg/kg/injection, schedule: Q01DX001 (ip), vehicle: Klucel (hydroxypropylcellulose) (HPC)
[9] = dose: 400.0 mg/kg/injection, schedule: Q01DX001 (ip), vehicle: Klucel (hydroxypropylcellulose) (HPC)
[10] = dose: 100.0 mg/kg/injection, schedule: Q01DX009 (ip), vehicle: saline with Tween-80
[11] = dose: 200.0 mg/kg/injection, schedule: Q01DX009 (ip), vehicle: saline with Tween-80
[12] = dose: 400.0 mg/kg/injection, schedule: Q01DX009 (ip), vehicle: saline with Tween-80
[13] = dose: 400.0 mg/kg/injection, schedule: Q04DX003 (ip), vehicle: saline with Tween-80
[14] = dose: 100.0 mg/kg/injection, schedule: Q04DX002 (ip), vehicle: saline with Tween-80
[15] = dose: 200.0 mg/kg/injection, schedule: Q04DX002 (ip), vehicle: saline with Tween-80
[16] = dose: 400.0 mg/kg/injection, schedule: Q04DX002 (ip), vehicle: saline with Tween-80
[17] = dose: 6.25 mg/kg/injection, schedule: Q04DX003 (ip), vehicle: saline
[18] = dose: 12.5 mg/kg/injection, schedule: Q04DX003 (ip), vehicle: saline
[19] = dose: 25.0 mg/kg/injection, schedule: Q04DX003 (ip), vehicle: saline

Measured: T/C

COc1ccc([I+]c2ccccc2)cc1
inactive: dose: 2.5 mg/kg/injection, schedule: Q01DX009 (ip), vehicle: saline sonified 102 % of control | dose: 2.5 mg/kg/injection, schedule: Q04DX003 (ip), vehicle: saline with Tween-80 106 % of control | dose: 5.0 mg/kg/injection, schedule: Q01DX009 (ip), vehicle: saline sonified 106 % of control | dose: 5.0 mg/kg/injection, schedule: Q04DX003 (ip), vehicle: saline with Tween-80 98 % of control | dose: 6.25 mg/kg/injection, schedule: Q01DX009 (ip), vehicle: saline with Tween-80 95 % of control | dose: 6.25 mg/kg/injection, schedule: Q04DX003 (ip), vehicle: saline with Tween-80 93 % of control | dose: 10.0 mg/kg/injection, schedule: Q01DX009 (ip), vehicle: saline sonified 95 % of control | [1] 104 % of control | dose: 12.5 mg/kg/injection, schedule: Q01DX009 (ip), vehicle: saline with Tween-80 118 % of control | [2] 92 % of control | [3] 120 % of control | [4] 104 % of control

O=P(OCCCOCc1ccccc1)(N(CCCl)CCCl)N1CC1 (stereo unspecified)
inactive: dose: 25.0 mg/kg/injection, schedule: Q01DX001 (ip), vehicle: other 104 % of control | dose: 50.0 mg/kg/injection, schedule: Q01DX001 (ip), vehicle: other 106 % of control | dose: 100.0 mg/kg/injection, schedule: Q01DX001 (ip), vehicle: DMSO 98 % of control | dose: 100.0 mg/kg/injection, schedule: Q01DX001 (ip), vehicle: other 118 % of control | dose: 200.0 mg/kg/injection, schedule: Q01DX001 (ip), vehicle: DMSO 103 % of control | dose: 200.0 mg/kg/injection, schedule: Q01DX001 (ip), vehicle: other 101 % of control | dose: 400.0 mg/kg/injection, schedule: Q01DX001 (ip), vehicle: DMSO 109 % of control | dose: 400.0 mg/kg/injection, schedule: Q01DX001 (ip), vehicle: other 87 % of control

COc1cc(C(=O)N(C(C)C)C2CCCCC2)cc(OC)c1OC
inactive: [5] 104 % of control | [6] 96 % of control

O=c1[nH]c2ccccc2c2ccccc2[nH]c(=O)c2ccccc12
inactive: [7] 98 % of control | [8] 102 % of control | [9] 102 % of control

Cc1cc(C)c(O)c(C)c1C
inactive: dose: 31.25 mg/kg/injection, schedule: Q01DX009 (ip), vehicle: saline 100 % of control | dose: 62.5 mg/kg/injection, schedule: Q01DX009 (ip), vehicle: saline 91 % of control | dose: 125.0 mg/kg/injection, schedule: Q01DX009 (ip), vehicle: saline 95 % of control | dose: 250.0 mg/kg/injection, schedule: Q01DX009 (ip), vehicle: saline 93 % of control

Nc1nc(N)c(N=Nc2ccc(S(=O)(=O)O)cc2)c(N)n1
inactive: [10] 94 % of control | [11] 94 % of control | [12] 98 % of control

O=C(O)Cc1ccccc1C(=O)O
inactive: dose: 100.0 mg/kg/injection, schedule: Q04DX003 (ip), vehicle: Klucel (hydroxypropylcellulose) (HPC) 96 % of control | dose: 200.0 mg/kg/injection, schedule: Q04DX003 (ip), vehicle: Klucel (hydroxypropylcellulose) (HPC) 104 % of control | dose: 400.0 mg/kg/injection, schedule: Q04DX003 (ip), vehicle: Klucel (hydroxypropylcellulose) (HPC) 96 % of control

COC1CCC2CCN(C)C(Cc3ccc(Oc4ccc(CC5C6CC(OC)CCC6CCN5C)cc4)cc3)C2C1 (stereo unspecified)
inactive: dose: 1.56 mg/kg/injection, schedule: Q04DX002 (ip), vehicle: saline with Tween-80 90 % of control | dose: 3.13 mg/kg/injection, schedule: Q04DX002 (ip), vehicle: saline with Tween-80 94 % of control

CO/N=C/c1ccc([N+](=O)[O-])s1
inactive: dose: 50.0 mg/kg/injection, schedule: Q01DX009 (ip), vehicle: saline 116 % of control

O=[N+]([O-])c1c[c]([Hg][Cl])c(O)[c]([Hg][Cl])c1
inactive: [2] 93 % of control

Cc1ccc(C(C)C)c(OCCCBr)c1
inactive: [4] 101 % of control | dose: 50.0 mg/kg/injection, schedule: Q04DX003 (ip), vehicle: saline with Tween-80 95 % of control | [5] 94 % of control and 95 % of control

Nc1ncnc2nc(-c3ccc(C[P+](c4ccccc4)(c4ccccc4)c4ccccc4)cc3)[nH]c12
inactive: [5] 101 % of control | [6] 95 % of control | [13] 101 % of control

O=Nc1cc(S(=O)(=O)O)c2ccccc2c1O
inactive: [10] 90 % of control | [5] 97 % of control | [11] 88 % of control and 109 % of control | [12] 95 % of control | [13] 97 % of control

CN(C)c1ccc(Cc2ccc(N(C)C)nc2)cn1
inactive: dose: 100.0 mg/kg/injection, schedule: Q01DX009 (ip), vehicle: Klucel (hydroxypropylcellulose) (HPC) 104 % of control | dose: 200.0 mg/kg/injection, schedule: Q01DX009 (ip), vehicle: Klucel (hydroxypropylcellulose) (HPC) 98 % of control | dose: 400.0 mg/kg/injection, schedule: Q01DX009 (ip), vehicle: Klucel (hydroxypropylcellulose) (HPC) 92 % of control

CCCCCCCCCCCCCCCC(=O)Nc1ccc(CC)cc1
inactive: [14] 103 % of control | [15] 91 % of control | [16] 95 % of control

CN(C)C(=N)N(C)C
inactive: [3] 98 % of control | dose: 50.0 mg/kg/injection, schedule: Q01DX009 (ip), vehicle: saline with Tween-80 95 % of control | [10] 87 % of control | dose: 100.0 mg/kg/injection, schedule: Q04DX003 (ip), vehicle: saline sonified 101 % of control

O=C(Nc1nccs1)c1ccc([N+](=O)[O-])cc1
inactive: dose: 100.0 mg/kg/injection, schedule: Q01DX001 (ip), vehicle: saline with Tween-80 95 % of control | dose: 200.0 mg/kg/injection, schedule: Q01DX001 (ip), vehicle: saline with Tween-80 88 % of control | dose: 400.0 mg/kg/injection, schedule: Q01DX001 (ip), vehicle: saline with Tween-80 100 % of control

CC(C)C1=CCC(OC(=O)N=C=Nc2ccccc2)CC1 (stereo unspecified)
inactive: [7] 93 % of control | [14] 90 % of control | [8] 91 % of control | [15] 96 % of control | [9] 94 % of control | [16] 93 % of control

CC(O)C(=O)[O][Hg][c]1ccccc1 (stereo unspecified)
inactive: [1] 92 % of control

C=C(Br)CNC(=O)C(F)(F)F
inactive: dose: 6.25 mg/kg/injection, schedule: Q01DX009 (ip), vehicle: saline 100 % of control | [17] 96 % of control | dose: 12.5 mg/kg/injection, schedule: Q01DX009 (ip), vehicle: saline 102 % of control | [18] 98 % of control | dose: 25.0 mg/kg/injection, schedule: Q01DX009 (ip), vehicle: saline 108 % of control | [19] 93 % of control

CCOC(=O)NCC[N+](C)(C)C
inactive: [17] 100 % of control | [18] 102 % of control | [19] 105 % of control

Oc1cc(N2CC2)c(O)cc1N1CC1
inactive: dose: 0.07 mg/kg/injection, schedule: Q01DX009 (ip), vehicle: saline 111 % of control | dose: 0.15 mg/kg/injection, schedule: Q01DX009 (ip), vehicle: saline 116 % of control

Reference: PubChem BioAssay AID256 (DTP/NCI, 2004)
